Measured values from the supplement of paper PMC12076712.

How the values were obtained:
Assay in all cases: pIC50, kinobeads binding competition
Conditions in all cases: cell material: Jurkat lysate
IRAK4 = target: T1, IRAK4 (UniProt Q9NWZ3)
T1 sequence (whole entry): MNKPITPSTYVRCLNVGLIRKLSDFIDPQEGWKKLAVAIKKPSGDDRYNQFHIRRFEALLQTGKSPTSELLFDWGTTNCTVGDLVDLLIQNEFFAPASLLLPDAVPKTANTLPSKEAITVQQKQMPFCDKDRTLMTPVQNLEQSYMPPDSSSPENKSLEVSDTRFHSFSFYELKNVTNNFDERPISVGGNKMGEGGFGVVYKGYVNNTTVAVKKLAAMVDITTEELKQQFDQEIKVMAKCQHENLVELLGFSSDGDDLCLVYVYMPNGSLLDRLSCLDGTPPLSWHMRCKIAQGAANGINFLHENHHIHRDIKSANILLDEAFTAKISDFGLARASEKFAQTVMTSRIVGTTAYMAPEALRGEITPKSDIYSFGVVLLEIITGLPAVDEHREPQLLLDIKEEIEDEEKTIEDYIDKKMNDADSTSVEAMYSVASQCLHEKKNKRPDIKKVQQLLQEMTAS

TEC = target: T2, TEC (UniProt P42680)
T2 sequence (whole entry): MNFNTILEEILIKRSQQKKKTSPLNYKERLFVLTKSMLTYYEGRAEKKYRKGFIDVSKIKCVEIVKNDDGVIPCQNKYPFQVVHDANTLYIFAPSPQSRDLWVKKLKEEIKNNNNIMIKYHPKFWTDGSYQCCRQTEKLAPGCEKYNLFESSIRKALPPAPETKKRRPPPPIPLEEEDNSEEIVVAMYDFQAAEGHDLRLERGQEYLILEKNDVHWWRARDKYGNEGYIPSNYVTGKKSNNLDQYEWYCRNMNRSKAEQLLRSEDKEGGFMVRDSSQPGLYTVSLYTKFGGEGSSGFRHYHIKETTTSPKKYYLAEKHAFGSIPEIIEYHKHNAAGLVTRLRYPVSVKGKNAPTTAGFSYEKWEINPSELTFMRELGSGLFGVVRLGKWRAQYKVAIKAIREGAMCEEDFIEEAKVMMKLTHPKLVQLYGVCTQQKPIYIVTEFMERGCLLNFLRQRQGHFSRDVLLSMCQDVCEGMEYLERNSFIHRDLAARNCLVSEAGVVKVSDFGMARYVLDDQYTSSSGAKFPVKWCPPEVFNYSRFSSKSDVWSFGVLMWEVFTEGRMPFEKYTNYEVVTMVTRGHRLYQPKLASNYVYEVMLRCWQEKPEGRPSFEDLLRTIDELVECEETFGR

ITK = target: T3, ITK (UniProt Q08881)
T3 sequence (whole entry): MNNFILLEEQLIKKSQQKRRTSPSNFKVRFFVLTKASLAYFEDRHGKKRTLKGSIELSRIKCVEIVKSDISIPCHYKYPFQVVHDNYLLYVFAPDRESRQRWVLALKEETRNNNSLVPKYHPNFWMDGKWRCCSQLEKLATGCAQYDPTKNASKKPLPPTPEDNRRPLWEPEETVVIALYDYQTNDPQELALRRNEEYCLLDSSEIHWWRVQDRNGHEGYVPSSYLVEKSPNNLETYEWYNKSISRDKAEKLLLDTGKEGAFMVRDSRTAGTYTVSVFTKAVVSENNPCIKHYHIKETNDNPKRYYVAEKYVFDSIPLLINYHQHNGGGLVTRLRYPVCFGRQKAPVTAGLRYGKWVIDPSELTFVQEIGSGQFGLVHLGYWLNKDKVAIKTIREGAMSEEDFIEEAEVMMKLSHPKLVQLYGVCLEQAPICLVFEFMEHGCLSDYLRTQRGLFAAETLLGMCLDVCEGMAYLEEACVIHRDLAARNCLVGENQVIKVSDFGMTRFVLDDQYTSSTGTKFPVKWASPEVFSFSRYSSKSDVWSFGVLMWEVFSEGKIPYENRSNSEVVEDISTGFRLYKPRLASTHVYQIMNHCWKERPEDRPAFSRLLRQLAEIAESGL

UniProt Q9Y2U5 = target: T4, UniProt Q9Y2U5
T4 sequence (whole entry): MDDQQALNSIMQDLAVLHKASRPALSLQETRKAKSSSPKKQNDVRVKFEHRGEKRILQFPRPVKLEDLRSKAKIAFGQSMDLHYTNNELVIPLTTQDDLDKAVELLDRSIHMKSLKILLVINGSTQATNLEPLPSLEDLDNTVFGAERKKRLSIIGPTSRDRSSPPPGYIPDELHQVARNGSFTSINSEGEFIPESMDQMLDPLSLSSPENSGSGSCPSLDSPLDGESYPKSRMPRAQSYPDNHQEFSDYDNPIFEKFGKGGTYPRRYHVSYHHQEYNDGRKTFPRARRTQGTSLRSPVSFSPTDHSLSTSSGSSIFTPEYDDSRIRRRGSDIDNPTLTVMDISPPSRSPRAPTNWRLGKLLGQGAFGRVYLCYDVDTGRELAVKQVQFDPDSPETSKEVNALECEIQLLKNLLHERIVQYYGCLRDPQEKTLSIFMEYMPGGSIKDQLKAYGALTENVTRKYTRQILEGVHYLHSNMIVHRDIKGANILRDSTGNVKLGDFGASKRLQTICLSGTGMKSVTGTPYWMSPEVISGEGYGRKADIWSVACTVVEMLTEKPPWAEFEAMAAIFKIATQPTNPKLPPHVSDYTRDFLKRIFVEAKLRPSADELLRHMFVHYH

IRAK1 = IRAK1 (UniProt P51617)
ICK = target: T5, ICK (UniProt Q9UPZ9)
T5 sequence (whole entry): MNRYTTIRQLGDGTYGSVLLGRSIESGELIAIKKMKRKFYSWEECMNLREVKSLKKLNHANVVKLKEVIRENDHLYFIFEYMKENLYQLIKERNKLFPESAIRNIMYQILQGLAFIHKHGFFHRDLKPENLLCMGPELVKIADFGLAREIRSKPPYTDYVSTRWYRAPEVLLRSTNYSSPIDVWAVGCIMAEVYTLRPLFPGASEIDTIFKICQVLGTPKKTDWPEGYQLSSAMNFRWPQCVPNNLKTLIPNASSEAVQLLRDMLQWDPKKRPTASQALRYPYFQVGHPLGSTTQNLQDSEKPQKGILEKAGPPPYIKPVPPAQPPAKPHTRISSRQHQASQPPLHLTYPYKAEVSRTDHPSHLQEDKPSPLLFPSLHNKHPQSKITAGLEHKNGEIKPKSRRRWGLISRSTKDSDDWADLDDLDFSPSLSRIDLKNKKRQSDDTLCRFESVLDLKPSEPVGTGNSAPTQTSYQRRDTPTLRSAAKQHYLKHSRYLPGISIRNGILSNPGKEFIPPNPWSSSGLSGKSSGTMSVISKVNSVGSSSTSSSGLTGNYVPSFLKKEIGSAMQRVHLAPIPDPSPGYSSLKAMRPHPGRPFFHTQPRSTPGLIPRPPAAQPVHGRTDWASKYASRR

Sequence of IRAK1 (P51617 whole entry, looked up): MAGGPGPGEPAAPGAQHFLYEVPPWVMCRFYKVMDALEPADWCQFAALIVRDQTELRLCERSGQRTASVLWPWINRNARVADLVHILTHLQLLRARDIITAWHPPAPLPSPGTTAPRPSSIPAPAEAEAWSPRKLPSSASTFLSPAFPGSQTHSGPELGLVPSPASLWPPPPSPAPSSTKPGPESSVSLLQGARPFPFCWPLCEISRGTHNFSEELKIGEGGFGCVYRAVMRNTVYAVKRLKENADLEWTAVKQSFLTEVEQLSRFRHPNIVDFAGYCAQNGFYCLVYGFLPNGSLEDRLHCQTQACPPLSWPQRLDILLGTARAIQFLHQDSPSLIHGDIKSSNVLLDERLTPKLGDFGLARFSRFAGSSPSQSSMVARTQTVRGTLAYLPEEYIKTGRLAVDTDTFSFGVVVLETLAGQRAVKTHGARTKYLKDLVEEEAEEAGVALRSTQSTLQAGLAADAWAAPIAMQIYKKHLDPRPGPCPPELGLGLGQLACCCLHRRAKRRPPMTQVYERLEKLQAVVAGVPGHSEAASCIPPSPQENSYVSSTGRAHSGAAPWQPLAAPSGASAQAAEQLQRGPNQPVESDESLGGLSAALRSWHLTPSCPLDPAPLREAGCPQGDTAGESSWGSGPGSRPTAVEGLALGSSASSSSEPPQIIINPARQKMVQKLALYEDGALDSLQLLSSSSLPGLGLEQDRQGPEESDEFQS

**Q.** For `CCc1cnn2c(NCc3ccc[n+]([O-])c3)cc(N3CCCC[C@H]3CCO)nc12` [dinaciclib], which pIC50 (IRAK4) is on record?
**A.** Its pIC50 is less than 4.52.

**Q.** What about the pIC50 (TEC) of the same compound?
**A.** Its pIC50 is less than 4.52.

**Q.** What about the pIC50 (ITK) of the same compound?
**A.** The pIC50 was less than 4.52.

**Q.** And the pIC50 (UniProt Q9Y2U5)?
**A.** The pIC50 was less than 4.52.

**Q.** And the pIC50 (IRAK1)?
**A.** Its pIC50 is less than 4.52.

**Q.** And the pIC50 (ICK)?
**A.** The pIC50 was 6.39.
